Assay: gradient 5% acetonitrile 3 min, to 50% in 2 min, to 85% in 15 min, held 3 min, 100 µL/min
Conditions: column: Zorbax Extend-C18 2.1 x 50 mm; eluents: water / acetonitrile, 0.1% formic acid
Method in brief: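 In both positive and negative ionization mode, a quadrupole time-of-flight mass spectrometer coupled to HPLC analyzed pure standards run in mixtures of ~100 molecules. The Zorbax Extend-C18 column (2.1 × 50 mm, 1.8 μm) was operated at 100 μL/min with water and acetonitrile, each containing 0.1% formic acid. The dead volume was 40 μL and the dwell volume 900 μL. Retention time came from adduct peaks that were computationally picked and individually inspected by hand.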

| SMILES | RP-LC retention time [s] |
| --- | --- |
| Cc1ccc(-c2nc(NCCC3=CCCCC3)c3ccccc3n2)cc1 | 974 |
| Cc1ccc(NC(=O)Cn2nc(C(=O)N3CCCC3)c3ccccc32)cc1 | 850 |
| COc1cccc(CNC2=NCCNC23CCN(S(=O)(=O)c2ccc(C)cc2C)CC3)c1 | 747 |
| COc1cc(-c2noc(Cn3ncn4nc(-c5ccccc5Cl)cc4c3=O)n2)cc(OC)c1OC | 1060 |
| C=C1CC2(OC1=O)c1ccccc1CCc1ccccc12 | 1140 |
| CCOc1ccc(CNC(=O)c2nnn(Cc3nc(-c4cccc(C)c4)oc3C)c2C)cc1 | 1140 |
| CC(Nc1nc(N2CCCC2)nc2ccccc12)c1ccccc1 (centres undefined) | 781 |
| Cc1cc(N2CCN(C)CC2)nc2ccc(NC(=O)c3cccc([N+](=O)[O-])c3)cc12 | 576 |
| NC(=O)c1ccc(-n2cccc2)nc1 | 650 |
| COc1cccc(-c2ccc3nc(N4CCC(C(=O)N5CCOCC5)CC4)sc3n2)c1 | 843 |
| CCCn1cc(S(=O)(=O)Nc2ccc(C#N)cc2)c2cccnc21 | 844 |
| CC1Oc2ccccc2N(CC(=O)N2CCN(c3cc(=O)n(C)c(=O)n3C)CC2)C1=O (centres undefined) | 656 |
| CCN(CC)C(=O)C1CCN(S(C)(=O)=O)c2cc(Cl)ccc2O1 (centres undefined) | 821 |
| COc1ccc(Cn2cc(S(=O)(=O)N3CCCCC3)ccc2=O)cc1 | 888 |
| O=C(CN1CCN(Cc2nc(-c3ccc(N4CCCCC4)nc3)no2)CC1)N1CCCC1 | 587 |
| Cc1cccc2c(=O)n(C3CCN(S(=O)(=O)c4cccc(Cl)c4)CC3)cnc12 | 1020 |
| COc1ccc(-c2ccc(N3CCN(c4ccccc4)CC3)nn2)cc1S(=O)(=O)N1CCOCC1 | 766 |
| COc1ccc(-c2noc(-c3cccnc3N3CCN(c4ccccc4)CC3)n2)cc1 | 1290 |
| COc1ccc(-c2noc(C3CC(=O)N(c4cc(C)cc(C)c4)C3)n2)cc1OC (centres undefined) | 922 |
| CCOc1ccc(-c2noc(Cn3c(=O)n(CC)c(=O)c4ccccc43)n2)cc1OC | 984 |
| CC(C)NC(=O)C(=O)NCC(c1ccc2c(c1)CCCN2C)N1CCCCC1 (centres undefined) | 671 |
| O=C(Cn1cnc2ccccc2c1=O)N1CCCC1 | 612 |
| COc1ccc(-c2noc(CCc3nnc4ccc(N5CCN(C6CCCCC6)CC5)nn34)n2)cc1 | 646 |

| SMILES | RP-LC retention time [s] |
| --- | --- |
| Cc1nc(-c2ccc(OC3CCN(C(=O)NC4CCCCC4)C3)cc2)no1 (centres undefined) | 845 |
| CCOC(=O)c1ccc(NC(=O)C2CCN(c3c(C(=O)N(CC)CC)cnc4snc(C)c34)CC2)cc1 | 967 |
| O=S(=O)(c1ccccc1)N1CC(n2cnnc2-c2ccccc2)C1 | 641 |
| CCc1ccc(-c2cn3cc(C(=O)NCCN4CCN(CC)CC4)ccc3n2)cc1 | 576 |
| COc1ccc(S(=O)(=O)NCC2Cn3cccc3C(=O)N2C)cc1 (centres undefined) | 687 |
| O=C(Nc1ccc(N2CCOCC2)cc1)C1CCCN(c2ncc(-c3ccccc3)cn2)C1 (centres undefined) | 925 |
| O=C(C(Cl)Cl)N1CC2CCC(CC2)C1 | 956 |
| O=C1c2ccccc2C(=O)c2sc(Nc3ccc(Cl)cc3)nc21 | 1030 |
| CCCCOc1ccc(S(=O)(=O)N2CCN(c3cc(C)nc(NC4CCCCC4)n3)CC2)cc1 | 996 |
| CN1CCC(NC(=O)c2n[nH]c3c2CN(C(=O)c2ccccc2)CC3)CC1 | 568 |
| Cc1nnc(-c2nnc(NCc3ccc(Cl)cc3)c3ccccc23)o1 | 886 |
| O=S(=O)(NCc1ccc(Br)cc1)c1ccc2c(c1)-c1oncc1CO2 | 958 |
| Clc1ccc(C(OCCN2CCCCC2)c2ccccc2)cc1 (centres undefined) | 850 |
| Cc1cc(N2CCC(NC(=O)NCc3cccc(F)c3)C2=O)ccc1F (centres undefined) | 903 |
| CCCNc1c(C(=O)OC)c(=O)[nH]c2c(Cl)cccc12 | 724 |
| O=C(NCCC1=CCCCC1)C1CCCN(c2nccn3nc(-c4ccccc4Cl)cc23)C1 (centres undefined) | 1090 |
| O=C(Cc1c(F)cccc1Cl)N1C[C@@H]2C[C@H]1C[C@@H]2NS(=O)(=O)c1cccs1 | 766 |
| COc1ccc2nc(C(=O)NCc3ccc(F)cc3)cn2n1 | 783 |
| Cc1ccc(-c2ncc(C(=O)Nc3ccc4c(c3)OCCO4)c(-c3ccncc3)n2)cc1 | 880 |
| Cc1csc(-c2csc(S(=O)(=O)Nc3ccc(F)c(Cl)c3)c2)n1 | 1020 |
| C=CCNC(=O)c1cn(-c2cc(-c3nc(C4CC4)no3)ccn2)cn1 | 800 |
| Cc1ccn2c(NC(=O)c3ccc(C)c(C)c3)c(-c3ccc(F)cc3)nc2c1 | 737 |
| COc1ccc(C2c3c(n(C)c4ccccc34)C(=O)N2CC(=O)N2CCN(c3ccccn3)CC2)cc1 (centres undefined) | 710 |

| SMILES | RP-LC retention time [s] |
| --- | --- |
| OC(CN1CCN(c2ncccn2)CC1)c1ccc(Br)cc1 (centres undefined) | 607 |
| COc1ccccc1-c1nc(C2CCN(C(=O)c3cc4cc(Cl)ccc4[nH]3)CC2)no1 | 1030 |
| CCOc1ccccc1N1CCN(C(=O)C2CCN(c3nccc4c(C)nn(CC)c34)CC2)CC1 | 719 |
| O=C(c1c(F)cccc1Cl)N1CCN(c2nccn2-c2ccccc2F)CC1 | 574 |
| Cc1cc(C)n(-c2ccc(=O)n(CCNC(=O)c3cc(C)on3)n2)n1 | 640 |
| COc1ccc(/C=C2\N=C(c3ccccc3)OC2=O)c(OCc2ccccc2)c1 | 981 |
| O=C(C1=CN(c2ccc3c(c2)OCO3)c2ccccc2S1(=O)=O)N1CCOCC1 | 717 |
| O=S(=O)(c1cccc(-c2nnc(-c3ccccc3Br)o2)c1)N1CCCCC1 | 1160 |
| Cc1cccc(NC(=O)C2CCCN(c3nc4ccsc4c(=O)n3-c3cccc(C)c3)C2)c1 (centres undefined) | 1020 |
| CCCCS(=O)(=O)Nc1ccc2c(c1)nc(-c1ccc(C(=O)NCCC)cc1)n2C | 660 |
| CCCn1c(=O)c(N2CCC(NC(=O)NCc3cccc(F)c3)CC2)nc2ccccc21 | 959 |
| CC(C)Cn1cc(S(=O)(=O)N2CCN(c3ccccc3F)CC2)c2cccnc21 | 1140 |
| CCCS(=O)(=O)N1CCC(OCCOc2cccnc2)CC1 | 581 |
| CCN1C=C(C(=O)OCc2cc(C)ccc2C)C(C)=NS1(=O)=O | 1060 |
| CCOc1ccc(-c2nc(NC(=O)Cc3csc(COc4cc(C)ccc4C)n3)sc2C)cc1 | 1350 |
| CSc1ccc(CNC(=O)C2CCCN(c3ccc(N4CCOCC4)nn3)C2)cc1 (centres undefined) | 653 |
| O=C(NCCCn1cccc1)c1cc(-c2ccccc2)on1 | 888 |
| Cc1nc2ccc(C(=O)N(C)C)cc2nc1C | 618 |
| COc1ccc(-c2cn3c(CC(=O)N4CCN(c5ncccn5)CC4)csc3n2)cc1OC | 639 |
| CCn1cnc(S(=O)(=O)N2CCCC(C(=O)N3CCN(c4ccccn4)CC3)C2)c1 (centres undefined) | 575 |
| CCOc1ccccc1NC(=O)CSc1ccc(N2CCCC(C(=O)NC3CC3)C2)nn1 (centres undefined) | 705 |
| N#Cc1cccc(NC(=O)Cn2cnc3nc4c(cc3c2=O)CCCC4)c1 | 700 |
| Cc1cc(=O)n2c3c(c4c(cc13)c(CN(C)C)cc(=O)n4C)OC2 | 601 |

| SMILES | RP-LC retention time [s] |
| --- | --- |
| Cc1ccc(C(=O)N(CCc2cscn2)Cc2cccnc2)cc1C | 636 |
| COc1cc(Cl)ccc1-c1nc(-c2ccc3oc(C)nc3c2)no1 | 1140 |
| COc1cccc(CCC(=O)N2CCN(C3=NC=CN4CC(C)N=C34)CC2)c1 (centres undefined) | 591 |
| O=S(=O)(c1ccc(-c2noc(-c3cccc(F)c3)n2)cc1)N1CCOCC1 | 1090 |
| CCCn1cc(C(=O)NCCC2=CCCCC2)c2nn(-c3ccccc3)c(=O)c-2c1 | 1090 |
| COCCn1c(C2CCN(S(=O)(=O)c3ccc(F)cc3)C2)nc2cccnc21 (centres undefined) | 763 |
| CCCN1C(=O)c2cccnc2Sc2cc(C(=O)N3CCCCC3)ccc21 | 772 |
| Cc1ccccc1CNC(=O)CN1CCN(Cc2ccccc2)C1=O | 806 |
| CCN1CCCC1CN(CC(=O)N1CCNCC1)S(=O)(=O)c1ccc(Br)cc1 (centres undefined) | 583 |
| COc1ccc(OCC(=O)N2CCN(c3ccc(-c4nc(C)c(C)s4)cn3)CC2)cc1 | 855 |
| CSc1ccc(-c2nc3ccc(Cl)cn3c2Nc2ccc3c(c2)OCCO3)cc1 | 819 |
| O=c1c2cnn(-c3ccc(F)cc3)c2ncn1Cc1nc(-c2cccc(Br)c2)no1 | 1130 |
| O=C(NC1CCN(c2ccccc2)C1=O)c1ccccc1Br (centres undefined) | 766 |
| COc1ccc(CNC(=O)c2ccc(CN3CCN(C(C)C)C(=O)C3=O)cc2)cc1 | 693 |
| COc1ccccc1CC(=O)N1CCCn2nc(-c3ccc(C)cc3)cc2C1 | 930 |
| Cc1cc(N2CCCC2)nc(N2CCN(C(=O)CC3CCCC3)CC2)n1 | 694 |
| Cc1cc(N2CCN(C(=O)Cc3cccc(F)c3)CC2)nc2nncn12 | 593 |
| Cc1ccccc1-c1nnc(CSc2nnc(NC(=O)CC3CCCCC3)s2)o1 | 1080 |
| O=C(c1cn2nc(Cl)ccc2n1)N1CCN(c2ccccc2F)CC1 | 836 |
| COc1ccccc1NC(=O)N1CCCC(Cn2c(C3CC3)nc3cccnc32)C1 (centres undefined) | 681 |

Reference: the METLIN SMRT retention time set (Domingo-Almenara et al. 2019)
